Reference: ChEMBL document CHEMBL1799932, “Antimalarial pyrido[1,2-a]benzimidazoles” (J Med Chem, 2011)

Columns and labels:
[1] = tested on: Plasmodium berghei; test: Antimalarial activity against GFP-transfected Plasmodium berghei strain ANKA infected in NMRI mouse assessed as reduction in parasitemia at 25 mg/kg, po administered as single dose measured on day 3 by FACS analysis; format: functional; parameters: scale not given: the % may be the effect or the level left
[2] = tested on: Plasmodium berghei; test: Antimalarial activity against GFP-transfected Plasmodium berghei strain ANKA infected in NMRI mouse assessed as increase in mean survival time at 50 mg/kg, po administered as single dose (reference value: 5 days )
[3] = tested on: Plasmodium berghei; test: Antimalarial activity against GFP-transfected Plasmodium berghei strain ANKA infected in NMRI mouse assessed as increase in median survival time at 50 mg/kg/day, ip administered for 4 days measured up to 30 days post infection (reference value: 5 to 7 days); format: functional; conditions: route intraperitoneal
[4] = tested on: Rattus norvegicus; test: Oral bioavailability in fasted Sprague-Dawley rat assessed as 1-(2-Diethylaminoethylamino)-3-[4-(trifluoromethyl)phenyl]-pyrido[1,2-a]benzimidazole-4-carbonitrile at 20 mg/kg, po after 48 hrs by LC-MS analysis; format: ADME, organism-based; conditions: in vivo
[5] = tested on: Plasmodium berghei; test: Antimalarial activity against GFP-transfected Plasmodium berghei strain ANKA infected in NMRI mouse assessed as increase in mean survival time at 25 mg/kg, po administered as single dose (reference value: 5 days )
[6] = tested on: Plasma; test: Plasma protein binding in human assessed as 1-(2-Diethylaminoethylamino)-3-[4-(trifluoromethyl)phenyl]-pyrido[1,2-a]benzimidazole-4-carbonitrile at 5 mg/kg, iv after 48 hrs by LC-MS analysis; format: ADME, organism-based; parameters: dose 5 mg/kg, route intravenous; conditions: in vivo
[7] = tested on: Plasmodium berghei; test: Antimalarial activity against GFP-transfected Plasmodium berghei strain ANKA infected in NMRI mouse assessed as reduction in parasitemia at 50 mg/kg, po administered as single dose measured on day 2 by FACS analysis; format: functional; parameters: scale not given: the % may be the effect or the level left
[8] = Metabolic stability in rat liver microsomes assessed as degradation half life after 60 mins by LC-MS analysis; format: ADME, Microsome
[9] = tested on: Rattus norvegicus; test: Cmax in fasted Sprague-Dawley rat assessed as 1-(2-Diethylaminoethylamino)-3-[4-(trifluoromethyl)phenyl]-pyrido[1,2-a]benzimidazole-4-carbonitrile at 20 mg/kg, po after 48 hrs by LC-MS analysis; format: ADME, organism-based; parameters: dose 20 mg/kg, route oral; conditions: in vivo
[10] = tested on: L6; test: Cytotoxicity at rat L6 cells after 72 hrs by microplate alamar blue assay; format: cell-based; conditions: l6
[11] = tested on: Rattus norvegicus; test: Tmax in fasted Sprague-Dawley rat assessed as 1-(2-Ethylaminoethylamino)-3-[4-(trifluoromethyl)phenyl]- pyrido[1,2-a]benzimidazole-4-carbonitrile level at 20 mg/kg, po after 48 hrs by LC-MS analysis; format: ADME, organism-based; parameters: dose 20 mg/kg, route oral; conditions: in vivo
[12] = tested on: Rattus norvegicus; test: Apparent volume of distribution in fasted Sprague-Dawley rat assessed as 1-(2-Diethylaminoethylamino)-3-[4-(trifluoromethyl)phenyl]-pyrido[1,2-a]benzimidazole-4-carbonitrile at 5 mg/kg, iv after 48 hrs by LC-MS analysis; format: ADME, organism-based; parameters: dose 5 mg/kg, route intravenous; conditions: in vivo
[13] = tested on: Rattus norvegicus; test: Drug excretion in fasted Sprague-Dawley rat urine assessed as 1-(2-Diethylaminoethylamino)-3-[4-(trifluoromethyl)phenyl]-pyrido[1,2-a]benzimidazole-4-carbonitrile at 5 mg/kg, iv after 48 hrs by LC-MS analysis; format: ADME, organism-based; parameters: dose 5 mg/kg, route intravenous; conditions: in vivo
[14] = tested on: Rattus norvegicus; test: Apparent half life in fasted Sprague-Dawley rat assessed as 1-(2-Diethylaminoethylamino)-3-[4-(trifluoromethyl)phenyl]-pyrido[1,2-a]benzimidazole-4-carbonitrile at 5 mg/kg, iv after 48 hrs by LC-MS analysis; format: ADME, organism-based; parameters: dose 5 mg/kg, route intravenous; conditions: in vivo
[15] = tested on: Rattus norvegicus; test: AUC (0 to tlast) in fasted Sprague-Dawley rat assessed as 1-(2-Diethylaminoethylamino)-3-[4-(trifluoromethyl)phenyl]-pyrido[1,2-a]benzimidazole-4-carbonitrile at 20 mg/kg, po after 48 hrs by LC-MS analysis; format: ADME, organism-based, Plasma; parameters: time < 48 hr, dose 20 mg/kg, route oral; conditions: in vivo
[16] = tested on: Plasma; test: Plasma protein binding in mouse assessed as 1-(2-Diethylaminoethylamino)-3-[4-(trifluoromethyl)phenyl]-pyrido[1,2-a]benzimidazole-4-carbonitrile at 5 mg/kg, iv after 48 hrs by LC-MS analysis; format: ADME, organism-based; parameters: dose 5 mg/kg, route intravenous; conditions: in vivo
[17] = Metabolic stability in mouse liver microsomes assessed as intrinsic clearance per mg protein after 60 mins by LC-MS analysis; format: ADME, Microsome
[18] = tested on: Plasmodium berghei; test: Antimalarial activity against GFP-transfected Plasmodium berghei strain ANKA infected in NMRI mouse assessed as reduction in parasitemia at 50 mg/kg/day, ip administered for 4 consecutive days measured 24 hrs after last treatment by FACS analysis relative to control; format: functional; parameters: scale not given: the % may be the effect or the level left; conditions: route intraperitoneal
[19] = tested on: Rattus norvegicus; test: Cmax in fasted Sprague-Dawley rat assessed as 1-(2-Ethylaminoethylamino)-3-[4-(trifluoromethyl)phenyl]- pyrido[1,2-a]benzimidazole-4-carbonitrile level at 20 mg/kg, po after 48 hrs by LC-MS analysis; format: ADME, organism-based; parameters: dose 20 mg/kg, route oral; conditions: in vivo
[20] = Metabolic stability in rat liver microsomes assessed as intrinsic clearance per mg protein after 60 mins by LC-MS analysis; format: ADME, Microsome
[21] = tested on: Rattus norvegicus; test: AUC (0 to tlast) in fasted Sprague-Dawley rat assessed as 1-(2-Diethylaminoethylamino)-3-[4-(trifluoromethyl)phenyl]-pyrido[1,2-a]benzimidazole-4-carbonitrile at 5 mg/kg, iv after 48 hrs by LC-MS analysis; format: ADME, organism-based, Plasma; parameters: time < 48 hr, dose 5 mg/kg, route intravenous; conditions: in vivo
[22] = tested on: Rattus norvegicus; test: AUC (0 to tlast) in fasted Sprague-Dawley rat assessed as 1-(2-Ethylaminoethylamino)-3-[4-(trifluoromethyl)phenyl]- pyrido[1,2-a]benzimidazole-4-carbonitrile level at 20 mg/kg, po after 48 hrs by LC-MS analysis; format: ADME, organism-based, Plasma; parameters: time < 48 hr, dose 20 mg/kg, route oral; conditions: in vivo
[23] = tested on: Plasmodium berghei; test: Antimalarial activity against GFP-transfected Plasmodium berghei strain ANKA infected in NMRI mouse assessed as reduction in parasitemia at 25 mg/kg, po administered as single dose measured on day 5 by FACS analysis; format: functional; parameters: scale not given: the % may be the effect or the level left
[24] = tested on: Plasmodium falciparum
Description: Antimalarial activity against multidrug-resistant Plasmodium falciparum K1 infected in human red blood cells assessed as 3H-hypoxanthine incorporation after 48 hrs by liquid scintillation counting

[25] = tested on: Rattus norvegicus; test: Tmax in fasted Sprague-Dawley rat assessed as 1-(2-Diethylaminoethylamino)-3-[4-(trifluoromethyl)phenyl]-pyrido[1,2-a]benzimidazole-4-carbonitrile at 20 mg/kg, po after 48 hrs by LC-MS analysis; format: ADME, organism-based; parameters: dose 20 mg/kg, route oral; conditions: in vivo
[26] = tested on: Rattus norvegicus; test: Apparent half life in fasted Sprague-Dawley rat assessed as 1-(2-Diethylaminoethylamino)-3-[4-(trifluoromethyl)phenyl]-pyrido[1,2-a]benzimidazole-4-carbonitrile at 20 mg/kg, po after 48 hrs by LC-MS analysis; format: ADME, organism-based; parameters: dose 20 mg/kg, route oral; conditions: in vivo
[27] = tested on: Plasmodium berghei; test: Antimalarial activity against GFP-transfected Plasmodium berghei strain ANKA infected in NMRI mouse assessed as reduction in parasitemia at 50 mg/kg, po administered as single dose measured on day 5 by FACS analysis; format: functional; parameters: scale not given: the % may be the effect or the level left
[28] = tested on: Rattus norvegicus; test: Drug excretion in fasted Sprague-Dawley rat urine assessed as 1-(2-Ethylaminoethylamino)-3-[4-(trifluoromethyl)phenyl]- pyrido[1,2-a]benzimidazole-4-carbonitrile level at 20 mg/kg, po after 48 hrs by LC-MS analysis; format: ADME, organism-based; parameters: dose 20 mg/kg, route oral; conditions: in vivo
[29] = tested on: Plasmodium berghei; test: Antimalarial activity against GFP-transfected Plasmodium berghei strain ANKA infected in NMRI mouse assessed as reduction in parasitemia at 50 mg/kg, po administered as single dose measured on day 3 by FACS analysis; format: functional; parameters: scale not given: the % may be the effect or the level left
[30] = Metabolic stability in human liver microsomes assessed as intrinsic clearance per mg protein after 60 mins by LC-MS analysis; format: ADME, Microsome
[31] = tested on: Plasmodium berghei; test: Antimalarial activity against GFP-transfected Plasmodium berghei strain ANKA infected in NMRI mouse assessed as reduction in parasitemia at 25 mg/kg, po administered as single dose measured on day 2 by FACS analysis; format: functional; parameters: scale not given: the % may be the effect or the level left

## CCN(CC)CCNc1cc(-c2ccc(C(F)(F)F)cc2)c(C#N)c2nc3ccccc3n12.Cl.Cl
[1]
  Activity: 24.38%
[2]
  MSD: 8 days
[3]
  MSD: 10 days
[4]
  F: > 22%
[5]
  MSD: 8 days
[6]
  PPB: 96.7%
[7]
  Activity: 5.15%
[8]
  half-life: 0.413 h
[9]
  Cmax: 380 nM
[10]
  IC50: 89.6 µM
[11]
  Tmax: 20 h
[12]
  Vz: 18.9 L/kg
[13]
  Activity: 0.39%
[14]
  t1/2(app): 7.3 h
[15]
  AUClast: 290 µM·min
[16]
  PPB: 97.9%
[17]
  microsomal CLint: 71.8 µL/min/mg
[18]
  Activity: 91.9%
[19]
  Cmax: 920 nM
[20]
  microsomal CLint: 69.8 µL/min/mg
[21]
  AUClast: 304 µM·min
[22]
  AUClast: 1032 µM·min
[23]
  Activity: 70.33%
[24]
  IC50: 0.08 µM
[25]
  Tmax: 4.13 h
[26]
  t1/2(app): 6.4 h
[27]
  Activity: 78.22%
[28]
  Activity: 0.05%
[29]
  Activity: 29.76%
[30]
  microsomal CLint: 127 µL/min/mg
[31]
  Activity: 13.07%
